Experimental data: the supplement of paper PMC11451515

Tested on: P12-Ichikawa
Assay: cell viability relative to DMSO control; higher = less cytotoxic
Settings: 48 h
Method in brief: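 Library compounds in DMSO were pin-dosed in an 11-point threefold series (47 μM to 0.79 nM) onto leukemia cells in 1536-well plates (5 μl). Plates held 500 cells/well of NOMO1 or SEM or 1000 cells/well of P12-Ichikawa, each adapted for at least four passages in each medium. Luminescence was read with CellTiter-Glo One after 48 h at 37°C. Viability means the per-plate percentage relative to DMSO wells, using cell-free wells as background.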

[1] = HPLM + 10% dialyzed FBS, 0.000781 µM
[2] = HPLM + 10% dialyzed FBS, 0.00234 µM
[3] = HPLM + 10% dialyzed FBS, 0.00702 µM
[4] = HPLM + 10% dialyzed FBS, 0.0211 µM
[5] = HPLM + 10% dialyzed FBS, 0.0632 µM
[6] = HPLM + 10% dialyzed FBS, 0.19 µM
[7] = HPLM + 10% dialyzed FBS, 0.569 µM
[8] = HPLM + 10% dialyzed FBS, 1.71 µM
[9] = HPLM + 10% dialyzed FBS, 5.12 µM
[10] = HPLM + 10% dialyzed FBS, 15.4 µM
[11] = HPLM + 10% dialyzed FBS, 46.1 µM
[12] = RPMI 5 mM glucose + 10% FBS, 0.000781 µM
[13] = RPMI 5 mM glucose + 10% FBS, 0.00234 µM
[14] = RPMI 5 mM glucose + 10% FBS, 0.00702 µM
[15] = RPMI 5 mM glucose + 10% FBS, 0.0211 µM
[16] = RPMI 5 mM glucose + 10% FBS, 0.0632 µM
[17] = RPMI 5 mM glucose + 10% FBS, 0.19 µM
[18] = RPMI 5 mM glucose + 10% FBS, 0.569 µM
[19] = RPMI 5 mM glucose + 10% FBS, 1.71 µM
[20] = RPMI 5 mM glucose + 10% FBS, 5.12 µM
[21] = RPMI 5 mM glucose + 10% FBS, 15.4 µM
[22] = RPMI 5 mM glucose + 10% FBS, 46.1 µM
[23] = RPMI 5 mM glucose + 10% dialyzed FBS, 0.000781 µM
[24] = RPMI 5 mM glucose + 10% dialyzed FBS, 0.00234 µM
[25] = RPMI 5 mM glucose + 10% dialyzed FBS, 0.00702 µM
[26] = RPMI 5 mM glucose + 10% dialyzed FBS, 0.0211 µM
[27] = RPMI 5 mM glucose + 10% dialyzed FBS, 0.0632 µM
[28] = RPMI 5 mM glucose + 10% dialyzed FBS, 0.19 µM
[29] = RPMI 5 mM glucose + 10% dialyzed FBS, 0.569 µM
[30] = RPMI 5 mM glucose + 10% dialyzed FBS, 1.71 µM
[31] = RPMI 5 mM glucose + 10% dialyzed FBS, 5.12 µM
[32] = RPMI 5 mM glucose + 10% dialyzed FBS, 15.4 µM
[33] = RPMI 5 mM glucose + 10% dialyzed FBS, 46.1 µM

SMILES	cell viability [1] [%]	cell viability [2] [%]	cell viability [3] [%]	cell viability [4] [%]	cell viability [5] [%]	cell viability [6] [%]	cell viability [7] [%]	cell viability [8] [%]	cell viability [9] [%]	cell viability [10] [%]	cell viability [11] [%]	cell viability [12] [%]	cell viability [13] [%]	cell viability [14] [%]	cell viability [15] [%]	cell viability [16] [%]	cell viability [17] [%]	cell viability [18] [%]	cell viability [19] [%]	cell viability [20] [%]	cell viability [21] [%]	cell viability [22] [%]	cell viability [23] [%]	cell viability [24] [%]	cell viability [25] [%]	cell viability [26] [%]	cell viability [27] [%]	cell viability [28] [%]	cell viability [29] [%]	cell viability [30] [%]	cell viability [31] [%]	cell viability [32] [%]	cell viability [33] [%]
Cc1cnc(NC(=O)Nc2cc(Br)c(C)cc2OC[C@@H]2CNCCO2)cn1	119	106	112	113	120	106	104	100	76.7	93.8	48.4	108	109	105	111	118	115	111	99.1	67.9	99.5	34.3	114	120	118	121	121	123	110	91	53.2	82.4	23.9
OC1CCC(Nc2ncc3nc(Nc4c(F)cc(F)cc4F)n([C@@H]4CCOC4)c3n2)CC1 (stereo partly drawn)	111	114	115	117	119	126	127	124	120	117	114	113	123	114	119	127	122	134	127	120	118	123	111	117	114	120	117	117	127	119	126	121	114
C[C@]12CCC(=O)C=C1CC[C@@H]1[C@@H]2CC[C@@]2(C)[C@H]1CC[C@]2(C)O	105	110	105	91.5	104	107	109	104	102	89.6	86.4	94.7	93.3	105	79.6	104	102	104	94.9	97.9	92.1	79.8	94.6	101	100	80.5	94.8	100	91.7	106	97.5	87.7	88.1
Cn1c(CNc2ccc(C(=N)N)cc2)nc2cc(C(=O)N(CCC(=O)O)c3ccccn3)ccc21	96.7	102	107	109	105	114	104	109	117	113	114	100	118	120	118	123	113	122	128	115	110	120	97.3	111	112	110	115	110	109	120	112	105	112
CC(C)(C)c1[nH]cnc1/C=c1\[nH]c(=O)/c(=C/c2ccccc2)[nH]c1=O	115	80	22.5	18.4	12	9.79	7.81	3.5	2.31	2.32	2.23	100	97	16.3	26.5	17.8	8.22	5.98	3.28	2.14	1.52	1.95	103	110	32.7	36.8	25	15.7	14.2	4.42	4.87	2.24	2.04
COc1cc(OC)c(/C=C/[S+](=O)([O-])Cc2ccc(OC)c(NCC(=O)[O][Na])c2)c(OC)c1	125	124	123	120	116	87.5	18.3	13.2	12.7	10.1	9.65	124	120	126	104	118	76.9	23.1	12.5	11.1	11.4	10.8	120	122	120	115	116	50.1	24.6	13.8	12	11.3	9.89
FC(F)c1nc2ccccc2n1-c1nc(N2CCOCC2)nc(N2CCOCC2)n1	98.2	108	107	104	101	91.4	85.4	78.5	83.8	81.9	59.1	98	104	96	85.4	92.8	71	64.7	58.9	61.1	58.7	58	106	94.5	103	102	95.3	92.6	75.7	54.4	63.5	64.8	55.8
C[C@]12CC[C@@H]3c4ccc(O)cc4C[C@@H](CCCCCCCCC[S+]([O-])CCCC(F)(F)C(F)(F)F)[C@H]3[C@@H]1CC[C@@H]2O (stereo partly drawn)	112	119	115	116	112	117	112	112	116	104	104																						
COC1=CC=C(C=C1)C/2=C/OC3=C(C(=CC(=C3)O)O)C2=O	113	120	118	77.2	124	120	119	123	117	105	74.5	108	108	113	65.2	120	120	133	121	123	127	123	118	118	119	82	131	133	129	137	133	134	93.7
COc1ccc(-c2nc(N3CCOCC3)c3sc(CN(C)c4ncc(C(=O)NO)cn4)cc3n2)cn1	109	121	101	62.6	6.62	7.21	7.09	6.69	6.67	6.8	7.92	102	127	111	57.6	7.68	7.7	7.72	6.89	7.19	7.05	5.24	107	119	108	74.2	10.5	8.35	8.38	8.07	7.55	6.64	5.83
N[C@H](CSC(c1ccccc1)(c1ccccc1)c1ccccc1)C(=O)O	107	112	121	129	108	114	117	120	115	114	108	97.6	112	115	124	116	122	120	119	125	124	131	90.9	116	122	116	118	112	115	121	127	121	116
C[C@@H]1[C@H](O)[C@@H](C)/C=C/C=C/C=C/C=C/C=C/C=C/C=C/[C@H](O[C@@H]2O[C@H](C)[C@@H](O)[C@H](N)[C@@H]2O)C[C@@H]2O[C@](O)(C[C@@H](O)C[C@@H](O)[C@H](O)CC[C@@H](O)C[C@@H](O)CC(=O)O[C@H]1C)C[C@H](O)[C@H]2C(=O)O	105	118	117	124	121	126	121	129	119	127	118	119	112	118	110	119	123	134	127	122	125	123	98.6	113	119	110	130	116	123	124	124	115	124
COc1ncc(-c2ccc3nccc(-c4ccnnc4)c3c2)cc1N[S+](=O)([O-])c1ccc(F)cc1F	118	115	115	106	101	95.6	95.3	74.8	35.8	17	11.3	139	111	91.1	91.4	83.3	77	69.9	55.9	40	17.5	8.78	131	113	101	97.3	89	90.3	80.5	61.3	47.5	13.6	9.07
C[C@@]12C[C@@]3(O)O[C@@H](O1)[C@]1(COC(=O)c4ccccc4)[C@H]3C[C@@]12O[C@@H]1O[C@H](CO)[C@@H](O)[C@H](O)[C@H]1O	91.3	96	103	100	110	99.5	103	108	109	97.5	76.7	94.9	99.4	111	111	118	105	108	116	118	113	112	89.8	95.4	103	110	105	97.4	108	104	103	110	101
COc1ccc(-c2ccc3c(N4CCOC[C@@H]4C)nc(N4CCOC[C@@H]4C)nc3n2)cc1CO	108	82.1	97	82.8	83.9	77.7	75.2	74.7	64.3	37.6	6.75	93.9	58.7	80.3	77.5	66.2	59.7	60.5	58.9	54.3	42.4	18.6	103	65.6	86.6	78.7	76.1	70.8	66.5	58.3	47.2	39	10.3
